The values that follow come from patent publication US20160280736A1, “CYCLIC PEPTIDE COMPOUND, AND PREPARATION METHOD, PHARMACEUTICAL COMPOSITION AND USE THEREOF” (HANGZHOU GUANYU BIO-MEDICAL CO., LTD., priority 2013, published 2016).

SMILES strings stand for the structures.

In general, IC50 refers to the concentration that inhibits the measured activity by half. Low readings indicate greater potency in that assay, high ones weaker potency in that assay. One may read the GI50 as the concentration that inhibits growth by half.

The target in one test is HDAC1 (Homo sapiens, UniProt Q13547). Nature of the test: HDAC biochemical activity measurement (fluorescent substrate deacetylation). To be noted: HDAC1 enzyme, 37°, 30 minutes.
Sequence of HDAC1 (Q13547 whole entry, species assumed): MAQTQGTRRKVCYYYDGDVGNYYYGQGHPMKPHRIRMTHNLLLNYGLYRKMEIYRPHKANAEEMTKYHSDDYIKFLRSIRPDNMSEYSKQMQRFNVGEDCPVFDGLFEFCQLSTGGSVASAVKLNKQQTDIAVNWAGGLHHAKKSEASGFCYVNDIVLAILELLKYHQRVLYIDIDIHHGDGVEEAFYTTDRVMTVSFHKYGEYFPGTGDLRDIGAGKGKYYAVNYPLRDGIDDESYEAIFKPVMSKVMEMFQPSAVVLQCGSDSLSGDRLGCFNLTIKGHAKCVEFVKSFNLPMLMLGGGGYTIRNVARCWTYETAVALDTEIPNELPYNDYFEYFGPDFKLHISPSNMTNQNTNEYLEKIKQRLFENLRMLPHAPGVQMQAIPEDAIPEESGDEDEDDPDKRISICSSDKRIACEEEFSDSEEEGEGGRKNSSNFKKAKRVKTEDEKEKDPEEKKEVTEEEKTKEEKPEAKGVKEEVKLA
For a further test, the target named is T1, HDAC11 (Homo sapiens, UniProt Q96DB2).
T1 sequence (Q96DB2 1-347): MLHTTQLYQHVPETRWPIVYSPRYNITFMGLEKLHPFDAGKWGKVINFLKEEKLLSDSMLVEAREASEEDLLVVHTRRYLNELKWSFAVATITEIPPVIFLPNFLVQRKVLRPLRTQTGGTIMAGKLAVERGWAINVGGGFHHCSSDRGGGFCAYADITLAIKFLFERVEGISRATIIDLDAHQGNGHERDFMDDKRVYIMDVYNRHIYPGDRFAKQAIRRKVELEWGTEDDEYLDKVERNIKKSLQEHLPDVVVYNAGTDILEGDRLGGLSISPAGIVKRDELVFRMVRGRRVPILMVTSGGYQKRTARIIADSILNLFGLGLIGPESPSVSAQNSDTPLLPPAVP
Described as above. To be noted: IC50 (μM) HDAC11, HDAC11 enzyme, 37°, 30 minutes.

The target of a further test is HDAC3 (Homo sapiens, UniProt O15379). Described as above. To be noted: IC50 (μM) HDAC3, HDAC3 enzyme, 37°, 30 minutes.
Sequence of HDAC3 (O15379 whole entry, species assumed): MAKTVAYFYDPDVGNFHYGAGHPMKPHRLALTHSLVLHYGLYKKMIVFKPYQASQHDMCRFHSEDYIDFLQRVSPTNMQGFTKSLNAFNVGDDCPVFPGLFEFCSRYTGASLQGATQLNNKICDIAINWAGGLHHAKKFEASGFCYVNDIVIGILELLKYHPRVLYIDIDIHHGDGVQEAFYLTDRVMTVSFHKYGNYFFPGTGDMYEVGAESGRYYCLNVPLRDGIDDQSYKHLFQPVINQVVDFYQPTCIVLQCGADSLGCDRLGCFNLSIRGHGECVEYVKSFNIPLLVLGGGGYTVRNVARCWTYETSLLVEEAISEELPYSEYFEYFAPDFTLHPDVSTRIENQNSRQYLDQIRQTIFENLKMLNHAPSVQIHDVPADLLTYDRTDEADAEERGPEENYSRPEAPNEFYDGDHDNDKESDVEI
Sequence of HDAC3 (Q9Y618 395-489 partner limits assumed, species assumed): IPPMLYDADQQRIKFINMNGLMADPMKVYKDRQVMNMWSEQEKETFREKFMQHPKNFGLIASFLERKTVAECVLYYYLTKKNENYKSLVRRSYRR
Another test has as its target T2, HDAC8 (Homo sapiens, UniProt Q9BY41).
T2 sequence (Q9BY41 1-377): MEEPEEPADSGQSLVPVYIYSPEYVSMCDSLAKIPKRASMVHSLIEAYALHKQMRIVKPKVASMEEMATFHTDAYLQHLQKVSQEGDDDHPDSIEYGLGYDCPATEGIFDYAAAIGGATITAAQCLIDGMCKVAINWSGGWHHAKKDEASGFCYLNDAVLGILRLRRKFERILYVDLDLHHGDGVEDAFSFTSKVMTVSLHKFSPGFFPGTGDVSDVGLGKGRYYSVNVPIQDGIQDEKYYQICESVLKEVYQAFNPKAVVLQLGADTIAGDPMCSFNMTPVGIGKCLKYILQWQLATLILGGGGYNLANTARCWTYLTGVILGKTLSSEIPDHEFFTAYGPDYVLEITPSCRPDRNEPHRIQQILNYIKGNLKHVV
The test is described as above. As to conditions: HDAC8 enzyme, 37°, 30 minutes.

For another test, the target named is HDAC2 (Homo sapiens, UniProt Q92769). The description is as above. As to conditions: HDAC2 enzyme, 37°, 30 minutes.
Sequence of HDAC2 (Q92769 whole entry, species assumed): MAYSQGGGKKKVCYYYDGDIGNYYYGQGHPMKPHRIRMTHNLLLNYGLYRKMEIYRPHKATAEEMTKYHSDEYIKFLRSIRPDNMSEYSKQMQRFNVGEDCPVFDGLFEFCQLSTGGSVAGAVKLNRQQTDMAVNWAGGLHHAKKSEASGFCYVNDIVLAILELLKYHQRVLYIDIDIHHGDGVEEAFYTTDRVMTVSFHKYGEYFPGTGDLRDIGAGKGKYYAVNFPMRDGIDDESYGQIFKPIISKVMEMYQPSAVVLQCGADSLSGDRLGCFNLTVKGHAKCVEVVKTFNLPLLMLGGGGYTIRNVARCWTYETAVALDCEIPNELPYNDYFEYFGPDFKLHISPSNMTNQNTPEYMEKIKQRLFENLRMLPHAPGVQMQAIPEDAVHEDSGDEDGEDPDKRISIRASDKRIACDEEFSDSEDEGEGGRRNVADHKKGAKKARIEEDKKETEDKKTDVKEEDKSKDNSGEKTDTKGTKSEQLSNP
In test [1] the test system is lncap (prostate cancer cells). Nature of the test: MTT cancer cell growth inhibition. The test is classed as cell-based. To be noted: Homo sapiens, LNCaP, 72 h, 72 hours incubation, lncap cells, read-out: GI50 lncap. The source says:
(§1) MTT assay principle is yellow MTT can penetrate membrane into the cell, succinic dehydrogenase of the mitochondria in living cells can make exogenous MTT reduction of insoluble in water of blue-violet acicular formazan for crystallization and deposition in the cell, crystallization can be dissolved dimethyl sulfoxide (DMSO) solution, detected its absorbance at 490 nm/570 nm wavelength by enzyme-linked immunosorbent assay, which can reflect the number of cells.
(§2) Using DMEM+10% FBS culture medium or using 1640+10% FBS culture, respectively.
(§3) Experimental group: 190 μl cell suspension+10 μl different concentrations of drugs (the final concentration is 10^−5˜10^−10 M)
(§4) a) Cells were seeded in 96-well plates with the inoculation of 1500/well, 190 μl/hole, 37° C., 5% of CO2 incubator overnight;
(§5) b) The next day each well was added 10 μl of different drugs. The final concentration of drug was 10^−5˜10^−10 M, three parallel holes; 37° C., 5% CO2 culture incubator for 72 hours incubation;
(§6) c) Per well was added 20 μl 5 mg/ml of MTT, 37° C., 5% CO2 culture incubator for 4 hours incubation;
(§7) d) The supernatant was discarded. Each well was added 100 μl of DMSO and oscillation;
(§8) e) 570 nm readings. Calculate cell viability. GI50 calculation based on the results.

The subject of test [2] is A549 (human lung cancer cells). In words: MTT cancer cell growth inhibition. The test is classed as cell-based. To be noted: Homo sapiens, A549, 72 h, 72 hours incubation, A549 cells, read-out: GI50 A549.
Excerpt: as §1, §2, §3, §4, §5, §6, §7, §8

For test [3], the system named is DU145 (human prostate cancer cells). In words: MTT cancer cell growth inhibition. The test is classed as cell-based. To be noted: Homo sapiens, DU-145, 72 h, 72 hours incubation, DU145 cells, read-out: GI50 Du14.
Excerpt: as §1, §2, §3, §4, §5, §6, §7, §8

Test [4] has as its system MCF-7 (human breast cancer cells). Nature of the test: MTT cancer cell growth inhibition. The test is classed as cell-based. As to conditions: Homo sapiens, MCF7, 72 h, 72 hours incubation, MCF-7 cells.
Excerpt: as §1, §2, §3, §4, §5, §6, §7, §8

The subject of test [5] is MOLT-4 (human acute lymphoblastic leukemia cells). In words: MTT cancer cell growth inhibition. The test is classed as cell-based. As to conditions: Homo sapiens, MOLT-4, 72 h, 72 hours incubation, MOLT-4 cells, read-out: GI50 Molt-.
Excerpt: as §1, §2, §3, §4, §5, §6, §7, §8

Test [6] relates to HT1080 (human fibrosarcoma cells). In words: MTT cancer cell growth inhibition. The test is classed as cell-based. To be noted: Homo sapiens, HT-1080, 72 h, 72 hours incubation, HT1080 cells, read-out: GI50 HT10.
Excerpt: as §1, §2, §3, §4, §5, §6, §7, §8

Test [7] relates to Hela (human cervical cancer cells). In words: MTT cancer cell growth inhibition. The test is classed as cell-based. As to conditions: Homo sapiens, HeLa, 72 h, 72 hours incubation, Hela cells, read-out: GI50 Hela.
Excerpt: as §1, §2, §3, §4, §5, §6, §7, §8

Test [8] relates to BGC-823 (human gastric cancer cells). Nature of the test: MTT cancer cell growth inhibition. The test is classed as cell-based. As to conditions: Homo sapiens, BGC-823, 72 h, 72 hours incubation, BGC-823 cells, read-out: GI50 BGC8.
Excerpt: as §1, §2, §3, §4, §5, §6, §7, §8

For test [9], the system named is PANC-1 (Pac-1, human pancreatic cancer cells). Nature of the test: MTT cancer cell growth inhibition. The test is classed as cell-based. As to conditions: Homo sapiens, PANC-1, 72 h, 72 hours incubation, PANC-1 cells, read-out: GI50 PAN.
Excerpt: as §1, §2, §3, §4, §5, §6, §7, §8

Test [10] deals with U937 (human leukemia cells). Nature of the test: MTT cancer cell growth inhibition. The test is classed as cell-based. To be noted: Homo sapiens, U-937, 72 h, 72 hours incubation.
Excerpt: as §1, §2, §3, §4, §5, §6, §7, §8

For test [11], the system named is MDA-MB-231 (breast cancer cells). Nature of the test: MTT cancer cell growth inhibition. As to conditions: Homo sapiens, MDA-MB-231, 72 h, MDA-MB-231 cells, 72 hours incubation. The test is classed as cell-based.
Excerpt: as §1, §2, §3, §4, §5, §6, §7, §8

For test [12], the system named is KBM-5 (human chronic myelogenous leukemia). In words: MTT cancer cell growth inhibition. To be noted: KBM5, 72 h, KBM-5 cells, 72 hours incubation. The test is classed as cell-based.
Excerpt: as §1, §2, §3, §4, §5, §6, §7, §8

Test [13] concerns N-87 (human gastric cancer cells). In words: MTT cancer cell growth inhibition. The test is classed as cell-based. As to conditions: 72 h, N-87 cells, 72 hours incubation.
Excerpt: as §1, §2, §3, §4, §5, §6, §7, §8

Test [14] relates to Huh-7 (human hepatoma cells). Nature of the test: MTT cancer cell growth inhibition. The test is classed as cell-based. As to conditions: Huh-7, 72 h, Huh-7 cells, 72 hours incubation.
Excerpt: as §1, §2, §3, §4, §5, §6, §7, §8

The subject of test [15] is KBM5-T315I (human chronic myelogenous leukemia). In words: MTT cancer cell growth inhibition. To be noted: 72 h, KBM5-T315I cells, 72 hours incubation, read-out: GI50 KBM5-T. The test is classed as cell-based.
Excerpt: as §1, §2, §3, §4, §5, §6, §7, §8

Test [16] has as its system Bel-7402 (human hepatoma cells). Nature of the test: MTT cancer cell growth inhibition. The test is classed as cell-based. To be noted: Bel-7402, 72 h, Bel-7402 cells, 72 hours incubation, read-out: GI50 Bel-7.
Excerpt: as §1, §2, §3, §4, §5, §6, §7, §8

Test [17] deals with SGC-7901 (human gastric cancer cells). Nature of the test: MTT cancer cell growth inhibition. To be noted: SGC-7901, 72 h, SGC-7901 cells, 72 hours incubation, read-out: GI50 SGC-79. The test is classed as cell-based.
Excerpt: as §1, §2, §3, §4, §5, §6, §7, §8

Test [18] has as its system HCC827 (human non-small cell lung cancer cells). Nature of the test: MTT cancer cell growth inhibition. The test is classed as cell-based. To be noted: HCC827, 72 h, 72 hours incubation, read-out: GI50 HCC8.
Excerpt: as §1, §2, §3, §4, §5, §6, §7, §8

Test [19] has as its system K562 (human leukemia cells). Nature of the test: MTT cancer cell growth inhibition. The test is classed as cell-based. As to conditions: K562, 72 h, 72 hours incubation.
Excerpt: as §1, §2, §3, §4, §5, §6, §7, §8

Procedure for HDAC11: (§9) Measurement principle: The chemical activity of the compound is determined according to the degree of deacetylation inhibition of the HDAC enzyme. This experiment measured the degree of deacetylation related to tumor proliferation and metastasis of HDAC1, HDAC2, HDAC3, HDAC8, HDAC11 five subtypes HDAC enzymes. After the substrate containing an acetylated lysine side chain and HDAC enzyme are labeled with a fluorescent label, the fluorescent substrate is de acetyl. The fluorescent labeled substrate is cleaved by the enzyme, and the fluorescent substance is released, which generates 460 nm emission light under the excitation of 360 nm light.
(§10) Specific steps: HDAC substrate was diluted with reaction buffer to 200M (reaction concentration of 20M), the HDAC enzyme was diluted to the appropriate concentration, then added different concentrations of the test compounds and acted at 37 ? 30 minutes, and then added the same volume of 2-times concentration substrate developing solution (developer), incubated at room temperature for 15 minutes. Finally, the last reading measured with a microplate plate reader, excitation light was 360 nm, the emitted light was 460 nm, data processing software was Prime 4, and the results are shown in Table 1.
Procedure for HDAC2: as §9, §10
Procedure for HDAC3: as §9, §10
Procedure for HDAC8: as §9, §10

In the case of `C/C=C1\NC(=O)c2ccc(SC)c(n2)CNC(=O)C[C@@H](/C=C/CCSC(=O)CCC)OC(=O)[C@H](C(C)C)NC1=O` [Compound 161], the IC50 on HDAC1 was found to be 0.061 µM; against HDAC11 it was 0.086 µM; on HDAC3 it was 0.063 µM; against HDAC8 it was 0.062 µM; against HDAC2, 0.033 µM. Moreover, the GI50 was 0.079 µM in test [1]; 0.083 µM in [2]; 0.023 µM in [3]; 0.073 µM in test [4]; 0.032 µM in test [5]; 0.057 µM in test [6]. In addition, the GI50 in test [7] is 0.012 µM; in test [8], 0.029 µM; in test [9], 0.011 µM; in test [10] it was 0.065 µM.
`C/C=C1\NC(=O)c2cc(SC)cc(n2)CNC(=O)C[C@@H](/C=C/CCSC(=O)CCCC)OC(=O)[C@H](C(C)C)NC1=O` [Compound 157]: the IC50 was 0.082 µM against HDAC1; 0.091 µM against HDAC11; 0.051 µM against HDAC3; 0.027 µM against HDAC8; 0.019 µM at HDAC2. Further, the GI50 in test [1] worked out at 0.051 µM; in test [2] it was 0.025 µM; in test [3], 0.073 µM; in test [4], 0.023 µM; in test [5], 0.025 µM; in [6], 0.095 µM. In addition, the GI50 in [7] amounted to 0.076 µM; in [8] it was 0.037 µM; in test [9], 0.026 µM; in [10], 0.024 µM.
`C/C=C1\NC(=O)c2cc(F)cc(n2)CNC(=O)C[C@@H](/C=C/CCSC(C)=O)OC(=O)[C@H](C(C)C)NC1=O` [Compound 49]: the GI50 was 0.026 µM in test [11]; 0.087 µM in test [12]; 0.073 µM in test [13]; 0.026 µM in [14]; 0.055 µM in test [15]; 0.072 µM in test [16]. Also, the GI50 in test [17] was determined as 0.067 µM; in [18], 0.072 µM; in test [19], 0.017 µM.
Regarding `C/C=C1\NC(=O)c2ccc(F)c(n2)CNC(=O)C[C@@H](/C=C/CCSC(C)=O)OC(=O)[C@H](C(C)C)NC1=O` (single isomer, unassigned) [Example 50], the GI50 was 0.025 µM in [11]; 0.079 µM in test [12]; 0.069 µM in test [13]; 0.025 µM in test [14]; 0.063 µM in [15]; 0.039 µM in [17]. The GI50 in test [19] worked out at 0.042 µM.
